{"source": "patent US20180303817A1", "about": "“THERAPEUTIC AGENT FOR BREAST CANCER” (Eisai R&D Management Co., Ltd., priority 2015, published 2018)", "key": {"[1]": {"system": "human-derived breast cancer cell line MFM223", "assay": "Anti-tumor effect of compound A in nude mice with subcutaneously transplanted human breast cancer cell line MFM223 (tumor volume)", "assay_type": "in vivo, nude mice (BALB/cAJcl-nu/nu, female)", "description": "(§1) Four nude mice (BALB/cAJcl-nu/nu, female, CLEA Japan, Inc.) per group were used to evaluate an anti-tumor effect when compound A was administered.\nA human-derived breast cancer cell line MFM223 (ECACC) was subjected to preparatory conditioning. The MFM223 cells were suspended at a concentration of 2×10^8 cells/mL in HBSS (Wako Pure Chemical Industries, Ltd.). To the resulting suspension was added an equal volume of Matrigel™ matrix (Becton, Dickinson and Company, Japan), and the mixture was mixed sufficiently. Then, 0.1 mL of the mixture was subcutaneously transplanted into the right flank of each nude mouse (CAnN.Cg-Foxnlnu/Crlalj, female, Charles River Laboratories International, Inc.). During rearing, β-estradiol (Wako Pure Chemical Industries, Ltd.) prepared at a final concentration of 2.5 μg/mL in drinking water was orally administered. 46 Days after the transplantation, a tumor formed was resected and cut into small pieces. HBSS containing Type I collagenase (SIGMA) at a final concentration of 380 units/mL and Deoxyribonuclease I (SIGMA) at a final concentration of 160 K units/mL was added thereto, and the mixture was stirred at 37° C. After the mixture was made to pass through a 100-μm cell strainer (Falcon®) and centrifuged to collect the cells, those cells were cultured in 10% bovine serum-containing EMEM culture medium.\nThe cells as so obtained were suspended at a concentration of 1.4×10^8 cells/mL in 10% bovine serum-containing EMEM culture medium (Wako Pure Chemical Industries, Ltd.). To the resulting suspension was added an equal volume of Matrigel™ matrix (Becton, Dickinson and Company, Japan), and the resulting mixture was mixed sufficiently. Next, 0.1 mL of the mixture was subcutaneously transplanted into the right flank of each mouse, and then, the anti-tumor effect was evaluated.\n20 Days after the transplantation, an electronic digital caliper (Digimatic™ Caliper; Mitutoyo Corporation) was used to measure the long and short diameters of a tumor of interest. The mice were grouped such that each group had substantially the same average of the tumor volumes. Note that each tumor volume was calculated by using the following equation:\nTumor Volume (mm^3)=Long Diameter (mm)×Short Diameter (mm)×Short Diameter (mm)/2.\n(§2) Compound A as obtained in Production Example 1 was dissolved at a concentration of 0.625 mg/mL, or 2.5 mg/mL in purified water.\n(§3) Then, the solution was orally administered at a dose of 20 mL/kg, i.e., 12.5 mg/kg or 50 mg/kg, once a day for 12 days to the mice of each group. Purified water was administered at 20 mL/kg to the control group.\n(§4) On day 3, 7, and 12 after initiation of the administration, the tumor volume of each mouse was measured. In addition, Table 2 and FIG. 2 show changes in body weight over time."}, "[2]": {"assay": "Changes in body weight over time in MFM223 tumor-bearing nude mice", "assay_type": "in vivo, nude mice (BALB/cAJcl-nu/nu, female)", "description": "as §1, §2, §3, §4"}, "[3]": {"settings": "12.5 mg/kg orally once a day, Day 3"}, "[4]": {"settings": "12.5 mg/kg orally once a day, Day 7"}, "[5]": {"settings": "12.5 mg/kg orally once a day, Day 12"}, "[6]": {"settings": "50 mg/kg orally once a day, Day 3"}, "[7]": {"settings": "50 mg/kg orally once a day, Day 7"}, "[8]": {"settings": "50 mg/kg orally once a day, Day 12"}}, "data": [{"smiles": "CNC(=O)n1ccc2cc(Oc3ccnc(NC(=O)c4ccc(C5CCN(CCO)CC5)cc4)c3)c(OCCOC)cc21", "note": "[Compound A, 5-((2-(4-(1-(2-hydroxyethyl)piperidin-4-yl)benzamide)pyridin-4-yl)oxy)-6-(2-methoxyethoxy)-N-methyl-1H-indole-1-carboxamide 1.5 succinate]", "values": [{"measurement": "Changes in tumor volume over time", "setting": "[1]; 12.5 mg/kg orally once a day, Day 0 (at grouping, before treatment effect)", "result": 151.6, "unit": "mm^3"}, {"measurement": "Changes in tumor volume over time", "setting": "[1]; [3]", "result": 139.0, "unit": "mm^3"}, {"measurement": "Changes in tumor volume over time", "setting": "[1]; [4]", "result": 143.8, "unit": "mm^3"}, {"measurement": "Changes in tumor volume over time", "setting": "[1]; [5]", "result": 148.2, "unit": "mm^3"}, {"measurement": "Changes in tumor volume over time", "setting": "[1]; 50 mg/kg orally once a day, Day 0 (at grouping, before treatment effect)", "result": 151.6, "unit": "mm^3"}, {"measurement": "Changes in tumor volume over time", "setting": "[1]; [6]", "result": 112.8, "unit": "mm^3"}, {"measurement": "Changes in tumor volume over time", "setting": "[1]; [7]", "result": 99.3, "unit": "mm^3"}, {"measurement": "Changes in tumor volume over time", "setting": "[1]; [8]", "result": 87.2, "unit": "mm^3"}, {"measurement": "Changes in body weight over time", "setting": "[2]; 12.5 mg/kg orally once a day, Day 0", "result": 21.1, "unit": "g"}, {"measurement": "Changes in body weight over time", "setting": "[2]; [3]", "result": 21.4, "unit": "g"}, {"measurement": "Changes in body weight over time", "setting": "[2]; [4]", "result": 22.6, "unit": "g"}, {"measurement": "Changes in body weight over time", "setting": "[2]; [5]", "result": 23.2, "unit": "g"}, {"measurement": "Changes in body weight over time", "setting": "[2]; 50 mg/kg orally once a day, Day 0", "result": 21.5, "unit": "g"}, {"measurement": "Changes in body weight over time", "setting": "[2]; [6]", "result": 22.8, "unit": "g"}, {"measurement": "Changes in body weight over time", "setting": "[2]; [7]", "result": 23.8, "unit": "g"}, {"measurement": "Changes in body weight over time", "setting": "[2]; [8]", "result": 24.0, "unit": "g"}]}]}
